For `O=C1O[C@@H](CNC(=S)C(F)F)CN1c1ccc(N2CCS(=O)(=O)CC2)c(F)c1`, the melting point was 146 to 147 °C.

In the case of `O=C1O[C@@H](CNC(=S)C(F)F)CN1c1ccc(N2CCS(=O)(=O)CC2)cc1`, the melting point is reported as 126 to 127 °C.

Compound `O=C1O[C@@H](CNC(=S)C(F)F)CN1c1ccc(N2CCCS(=O)(=O)CC2)c(F)c1` has a melting point of 128 to 130 °C.

In the case of `O=C1O[C@@H](CNC(=S)C(F)F)CN1c1cc(F)c(N2CCS(=O)(=O)CC2)c(F)c1`, the melting point is reported as 88 to 90 °C.

`O=C1O[C@@H](CNC(=S)C(F)F)CN1c1cc(F)c(C2CCS(=O)(=O)CC2)c(F)c1` gave a melting point of 126 to 128 °C.

Compound `O=C1O[C@@H](CNC(=S)C(F)F)CN1c1ccc(C2CCS(=O)(=O)CC2)cc1` has a melting point of 174 to 176 °C.

Work on `O=C1O[C@@H](CNC(=S)C(F)F)CN1c1ccc(N2CC[S+]([O-])CC2)cc1` yielded a melting point of 155 to 156 °C.

For `O=C1O[C@@H](CNC(=S)C(F)F)CN1c1ccc(C2CCS(=O)(=O)CC2)c(F)c1`, the melting point was 168 to 169 °C.

From patent publication US6927229B2 (dated 2005)
